Measured values: patent US5556849A, “Ruthenium containing phthalocyanin photosensitizers” (priority 1991, dated 1996)

Columns and labels:
[1] = system: Adherent cells (HeLa RCA. SKOV OVCAR); assay: Phototoxicity (Light): 3H-thymidine incorporation in adherent cells after irradiation, with dark cytotoxicity for PI; assay type: cell-based; conditions: for IC50 / PC50 (phototoxic concentration 50%): with light dose, 50% reduction in cancer cell growth vs untreated control, 24 h incubation with sensitizer; for IC50: read-out: PC50 (phototoxic concentration 50%); for PI (phototoxicity index): ratio of PC50 to cytotoxic concentration 50% (no light)
Protocol: The media is removed and the cells washed three times with D-PBS. and then covered with D-PBS (200 μl ) and exposed to light from the same source used in the singlet oxygen assay.
This follows the procedure for phototoxicity except that the cells are never exposed to light. The assay is relative to a non-treated control.
(§1) Compounds according to the invention were assessed and characterised by their light absorption maxima, and their molar extinction coefficients according to conventional test procedures. Most of the compound were tested for their biological activity according to conventional test procedures in the art. The PC50 represents phototoxic concentration 50%. which is the concentration of compound when exposed to a light dose as described herein, causes a 50% reduction in cancer cell growth vs an untreated control population. The phototoxicity index. PI, is the ratio of the PC50 to the cytotoxic concentration 50%. where the growth is reduced by 50% without a light dose being given.
PC50 is determined by a relatively simple in vitro assay on a cellular level, which is generally indicative of photosensitizing activity.

[2] = Light absorption maxima and molar extinction coefficients; assay type: physicochemical
Protocol: as §1

Compound	IC50 [1]	ε (molar extinction coefficient) [2]	λmax Q ([2]; in water (W))	PI (phototoxicity index) [1]	PC50 (phototoxic concentration 50%) [1]	λmax Q ([2]; in methanol (M))
O=S(=O)(O)c1ccc[n+]([Ru-2]2([n+]3cccc(S(=O)(=O)O)c3)[n]3c4c5cc6ccccc6cc5c3N=C3N=C(N=c5c6cc7ccccc7cc6c([n]52)=NC2=NC(=N4)c4cc5ccccc5cc42)c2cc4ccccc4cc23)c1.[Na+].[Na+] [RuNc(3PS)2]	460 nM					
O=S(=O)([O-])c1cccc(P(c2ccccc2)c2ccccc2)c1.O=S(=O)([O-])c1cccc(P(c2ccccc2)c2ccccc2)c1.[K+].[K+].c1ccc2cc3c(cc2c1)C1=NC2=NC(=Nc4c5cc6ccccc6cc5c5[n]4[Ru][n]4c(c6cc7ccccc7cc6c4=N5)=NC3=N1)c1cc3ccccc3cc12 [RuNc(TPPMS)2]	2700 nM	54000 M⁻¹ cm⁻¹	734	1.6		
Cc1cc2c(cc1C)C1=Nc3c4cc(C)c(C)cc4c4[n]3[Ru][n]3c(c5cc(C)c(C)cc5c3=NC3=NC(=N4)c4cc(C)c(C)cc43)=NC2=N1.O=C(O)c1cncc(C(=O)O)c1.O=C(O)c1cncc(C(=O)O)c1 [Ru(oMe)8 Pc(35PDCA2)]		63300 M⁻¹ cm⁻¹	641	1	Inactive	
O=S(=O)([O-])c1ccc[n+]([Ru-2]2([n+]3cccc(S(=O)(=O)[O-])c3)[n]3c4c5cc6ccccc6cc5c3N=C3N=C(N=c5c6cc7ccccc7cc6c([n]52)=NC2=NC(=N4)c4cc5ccccc5cc42)c2cc4ccccc4cc23)c1.[Na+].[Na+] [RuNc(3PS)2]		83000 M⁻¹ cm⁻¹	730	32.6		
O=C(O)c1cccnc1.O=C(O)c1cccnc1.c1ccc2cc3c(cc2c1)C1=NC3=Nc2c3cc4ccccc4cc3c3[n]2[Ru][n]2c(c4cc5ccccc5cc4c2=NC2=NC(=N3)c3cc4ccccc4cc32)=N1 [RuNc(Nic)2]	105 nM	169000 M⁻¹ cm⁻¹	762	22.2		
NCCC(=O)[O-].NCCC(=O)[O-].[K+].[K+].c1ccc2c(c1)C1=NC3=NC(=Nc4c5ccccc5c5[n]4[Ru][n]4c(c6ccccc6c4=N5)=NC2=N1)c1ccccc13 [RuPc(β-ALA)2]	1900 nM	105000 M⁻¹ cm⁻¹				
O=S(=O)([O-])c1cccc(P(c2cccc(S(=O)(=O)[O-])c2)c2cccc(S(=O)(=O)[O-])c2)c1.O=S(=O)([O-])c1cccc(P(c2cccc(S(=O)(=O)[O-])c2)c2cccc(S(=O)(=O)[O-])c2)c1.[Na+].[Na+].[Na+].[Na+].[Na+].[Na+].c1ccc2cc3c(cc2c1)C1=NC2=NC(=Nc4c5cc6ccccc6cc5c5[n]4[Ru][n]4c(c6cc7ccccc7cc6c4=N5)=NC3=N1)c1cc3ccccc3cc12 [RuNc(TPPTS)2]	> 100000 nM		720			
O=C(O)c1cccnc1.O=C(O)c1cccnc1.c1cnc2c(n1)C1=NC2=Nc2c3nccnc3c3[n]2[Ru][n]2c(c4nccnc4c2=NC2=NC(=N3)c3nccnc32)=N1 [RupyrPc(Nic)2]		45100 M⁻¹ cm⁻¹	625	1	Inactive	
Nc1ccc(O)c(C(=O)O)c1.Nc1ccc(O)c(C(=O)O)c1.c1ccc2c(c1)C1=NC3=NC(=Nc4c5ccccc5c5[n]4[Ru][n]4c(c6ccccc6c4=N5)=NC2=N1)c1ccccc13 [RuPc(5AS)2]	2000 nM	66500 M⁻¹ cm⁻¹				
O=S(=O)([O-])c1cccc(P(c2cccc(S(=O)(=O)[O-])c2)c2cccc(S(=O)(=O)[O-])c2)c1.O=S(=O)([O-])c1cccc(P(c2cccc(S(=O)(=O)[O-])c2)c2cccc(S(=O)(=O)[O-])c2)c1.[Na+].[Na+].[Na+].[Na+].[Na+].[Na+].c1ccc2c(c1)C1=NC3=NC(=Nc4c5ccccc5c5[n]4[Ru][n]4c(c6ccccc6c4=N5)=NC2=N1)c1ccccc13 [RuPc(TPPTS)2]	11300 nM	87400 M⁻¹ cm⁻¹	650	> 15		
Nc1cccc(C(=O)O)c1.Nc1cccc(C(=O)O)c1.c1ccc2c(c1)C1=NC3=NC(=Nc4c5ccccc5c5[n]4[Ru][n]4c(c6ccccc6c4=N5)=NC2=N1)c1ccccc13 [RuPc(ABA)2]	3500 nM	72500 M⁻¹ cm⁻¹	638	8.8		
NCCS(=O)(=O)[O-].NCCS(=O)(=O)[O-].O.O.O.O.O.O.[Na+].[Na+].c1ccc2c(c1)C1=NC3=NC(=Nc4c5ccccc5c5[n]4[Ru][n]4c(c6ccccc6c4=N5)=NC2=N1)c1ccccc13 [RuPc(Tau)2 (Ex 3), Na2 [Ru(Pc)bis(taurine)]hexahydrate]	9000 nM	79800 M⁻¹ cm⁻¹	634	> 1.1		623
O.O.O.O.O=S(=O)([O-])CCc1cc[n+]([Ru-2]2([n+]3ccc(CCS(=O)(=O)[O-])cc3)[n]3c4c5ccccc5c3N=C3N=C(N=c5c6ccccc6c([n]52)=NC2=NC(=N4)c4ccccc42)c2ccccc23)cc1.[K+].[K+] [RuPc(PES)2 (Ex 2), K2 [Ru(Pc)bis(4-pyridineethanesulfonate)]tetrahydrate]		72500 M⁻¹ cm⁻¹	632	1	Inactive	
O=S(=O)([O-])c1cccnc1.O=S(=O)([O-])c1cccnc1.[Na+].[Na+].c1ccc2c(c1)C1=NC2=Nc2c3ccccc3c3[n]2[Ru][n]2c(c4ccccc4c2=NC2=NC(=N3)c3ccccc32)=N1 [RuPc(3PS)2]	929 nM	736000 M⁻¹ cm⁻¹	630	> 109		
N#Cc1cccc(C(=O)O)c1.N#Cc1cccc(C(=O)O)c1.c1ccc2c(c1)C1=NC3=NC(=Nc4c5ccccc5c5[n]4[Ru][n]4c(c6ccccc6c4=N5)=NC2=N1)c1ccccc13 [RuPc(CBA)2]	420 nM	97600 M⁻¹ cm⁻¹	650	10.2		
O=C(O)c1cncc(C(=O)O)c1.O=C(O)c1cncc(C(=O)O)c1.c1ccc2c(c1)C1=NC2=Nc2c3ccccc3c3[n]2[Ru][n]2c(c4ccccc4c2=NC2=NC(=N3)c3ccccc32)=N1 [RuPc(35PDCA)2]	18000 nM	48400 M⁻¹ cm⁻¹	632	> 5.6		
O=C(O)c1cccnc1.O=C(O)c1cccnc1.c1ccc2c(c1)C1=NC2=Nc2c3ccccc3c3[n]2[Ru][n]2c(c4ccccc4c2=NC2=NC(=N3)c3ccccc32)=N1 [RuPc(Nic)2]	1260 nM	648000 M⁻¹ cm⁻¹	630	> 79		
O=C([O-])c1cccc(P(c2ccccc2)c2ccccc2)c1.[Na+].c1ccc2c(c1)C1=NC2=Nc2c3ccccc3c3[n]2[Ru][n]2c(c4ccccc4c2=NC2=NC(=N3)c3ccccc32)=N1.c1ccncc1 [RuPc(py)(TPPMC)]		54600 M⁻¹ cm⁻¹	644			
O=S(=O)([O-])c1cccc(P(c2ccccc2)c2ccccc2)c1.O=S(=O)([O-])c1cccc(P(c2ccccc2)c2ccccc2)c1.[K+].[K+].c1ccc2c(c1)C1=NC3=NC(=Nc4c5ccccc5c5[n]4[Ru][n]4c(c6ccccc6c4=N5)=NC2=N1)c1ccccc13 [RuPc(TPPMS)2]		90300 M⁻¹ cm⁻¹	652			
